Test results published in patent publication US12551468B2, “Pharmaceutical composition for oral administration, for treatment of liver cancer” (ETNOVA Therapeutics Corp., priority 2019, dated 2026).

Assays:
Human liver cancer cells = assay: Comparative test of anticancer effect according to administration route change (Example 5); type: in vivo; conditions: 100 mg/kg P.O. vs 5 mg/kg I.V., twice a week for 4 weeks
Description: Human liver cancer cells were suspended in a 1:1 mixture (100 μL) of EMEM serum free media: Matrigel at a density of 2×10^6 cells/animal and the suspension was transplanted subcutaneously into the flank of nude mice (5 weeks old, male). We have waited for the tumor formation for 4 weeks. When the tumor volume reached 100 mm^3, the body weight and the tumor size were measured and then the mice were randomly grouped. The mice were divided into 4 groups. Saline alone was administered intravenously to each group (Saline administered group (n=6, I.V.)). Cisplatin adjusted to pH 4 using NaCl aqueous solution, HCl aqueous solution, or NaOH aqueous solution was administered intravenously thereto (Cisplatin administered group (n=5, I.V.)). […] The mice were anesthetized immediately prior to administration, and the body weight was measured to observe the change in the body weight. The changes in the body weight and the tumor size for 4 weeks were measured in the same manner as in Example 1 above, and the results are shown in FIG. 6. In the same manner as in Example 2, the tumor was separated and the relative size of the tumor was measured, and the photographed tissue is shown in FIG. 7.

[1] = tested on: human liver cancer cell line HepG2; assay: Anticancer effect test in liver cancer animal model using human liver cancer cell line (Example 2); type: in vivo, nude mouse; conditions: for relative size of tumor isolated 21 days after administration: compound 100 mg/kg P.O., Cisplatin 5 mg/kg IV, twice a week for 3 weeks, FIG. 2
Description: (§1) The human liver cancer cell line HepG2 was grown in Eagle's Minimum Essential Medium (EMEM) medium supplemented with 10% Fetal bovine serum (FBS) and 1% Antibiotic-Antimycotic. For liver cancer animal model production, stabilized cells were suspended in a 1:1 mixture (100 μL) of EMEM serum free media: Matrigel at a density of 5×10^6 cells/animal and then the suspension was transplanted subcutaneously to a flank of a nude mouse (5 weeks old, male). We have waited for the tumor formation for 3 weeks. When the tumor volume reached 200 mm^3, the body weight and the tumor size were measured and then the mice were randomly grouped. The mice were divided into 3 groups. Saline alone was administered intravenously to each group (Saline administered group (n=6, IV)). Cisplatin adjusted to pH 4 using NaCl aqueous solution, HCl aqueous solution, or NaOH aqueous solution was administered intravenously thereto (Cisplatin administered group (n=6, IV)). The compound according to the present disclosure (compound of Chemical Formula 1-1) dissolved in saline was forcibly administered orally thereto (administered group according to the present disclosure (n=6, P.O.)). The administration intervals and frequencies of administration to the groups were equal to each other. The administration was performed once a day and twice a week for 3 weeks. The dosage of Cisplatin (intravenous administration) was 5 mg/kg. The composition was orally administered at 100 mg/kg to the administered group according to the present disclosure.
The mice were anesthetized immediately prior to the administration, and then the body weight thereof was measured to observe the change in the body weight. The change in the tumor size over time was observed based on a following equation.
Average tumor volume calculation equation: V (mean tumor volume)=(A×B×B)/2
(In the above equation, A denotes a length of a long side and B denotes a length of a short side).
Further, on 21 days after the administration, a start time of tumor necrosis in the saline group was designated as an end point of the experiment. All nude mice participating in the experiment were sacrificed. Only the tumor was isolated from the flank thereof, and the relative size of the tumor was photographed. In FIG. 2, grayish-white dots mean that all tumors have disappeared and an individual has a tumor which may not be distinguished.

[2] = tested on: human liver cancer cell line HepG2; assay: Comparison of survival rate in the liver cancer animal model (Example 4); type: in vivo, nude mouse; conditions: animal model test of Example 2; FIG. 5
Description: as §1, with “The composition was orally administered at 100 mg/kg to the administered group according to the present disclosure.” left out

[3] = Comparative study of blood and histological toxicity (serum GOT/GPT activity, Sirius red staining of liver and kidney); type: in vivo; conditions: oral administration, end of Example 2 experiment; FIG. 3 and FIG. 4
Description: Toxicity was analyzed based on activity assay of GOT and GPT. A specific experimental method is as follows: GOT and GPT activity in serum was measured using a reagent kit (Asan Pharmaceutical) prepared according to a method of Reitman-Frankel. At an end of the experiment, blood was collected from an abdominal vena cava of the mice to which the compound was administered, and serum was separated therefrom. When a substrate solution was added to the serum which in turn was heated for a certain period of time, oxalacetate and glutamic acid were generated from the substrate solution for GOT measurement (aspartate, a-ketoglutarate mixture) due to the action of serum GOT, while under GPT action, pyruvate and glutamic acid were generated from the substrate solution for GPT measurement (Alanine, a-ketoglutarate mixture). Then, […] was added thereto such that 2,4-dinitrophenylhydrazone of oxaloacetate or pyruvate was produced, and NaOH was added thereto to develop color, and then absorbance was measured (505 nm). The activity of GOT and GPT in serum was calculated from a standard calibration curve as prepared separately.
At the end of the experiment, the blood of nude mice participating in the experiment was perfused and livers and kidneys were obtained. The tissues were fixed in 4% paraformaldehyde. […]

[4] = 100 mg/kg P.O., once a day twice a week for 3 weeks, FIG. 1

Row | Structure (SMILES) | toxicity based on the change in body weight, oral compared to intravenous administration (Human liver cancer cells; FIG. 6) | anticancer effect (tumor size, isolated tumor at 28 days, survival), oral compared to intravenous administration (Human liver cancer cells; FIGS. 6, 7, 8) | change in body weight for 3 weeks [1, 4] | change in tumor size for 3 weeks [1, 4] | relative size of tumor isolated 21 days after administration [1] | survival over time after drug administration [2] | toxicity in the liver and kidneys (serum GOT and GPT activity, tissue histology) [3]
1 | NCC(N)C(=O)Nc1ccc(-c2nc3ccccc3s2)cc1 (centres unmarked) [Chemical Formula 1-1] | the toxicity based on the change in body weight may be lowered | the anticancer effect may be significantly better | no decrease in the body weight | the tumor disappeared or the size thereof was significantly reduced | tumors significantly decrease or completely disappear | the survival was higher | significantly lowered
2 | N.N.[Cl][Pt][Cl] [Cisplatin, cisplatin, reference compound] | – | – | – | – | tumor cells remain | – | –
